Laboratory results: patent US20210059282A1, “Process for Spray Drying Fucosyllactose Solutions and Related Product Compositions” (DUPONT NUTRITION BIOSCIENCES APS, priority 2018, published 2021)

Assay: Solubility in water at room temperature and pressure (general statement)
Assay type: physicochemical

- Solubility in water: soluble in water
SMILES: CC1OC(OC2C(OC3C(CO)OC(O)C(O)C3O)OC(CO)C(O)C2O)C(O)C(O)C1O (stereo not shown) [2′-FL, 2′-fucosyllactose]
